# Test results reported in the supplement of paper PMC10307832.
# Legend:
# Assay in all cases: relative viability (nuclei count vs DMSO), 5 days (fraction); higher = more cells survive
# Tanzisertib + AZD7762 = compound: O[C@H]1CC[C@H](Nc2ncc3nc(Nc4c(F)cc(F)cc4F)n([C@H]4CCOC4)c3n2)CC1 [Tanzisertib] + NC(=O)Nc1cc(-c2cccc(F)c2)sc1C(=O)N[C@H]1CCCNC1 [AZD7762] (partner 0.2 µM)
# In short: (§1)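 After 5 days of treatment, lung cancer cells in 1536-well plates were fixed and stained in a single step (final 0.05% Triton X-100, 1% formaldehyde, 1 ug/ml Hoechst) and their nuclei counted on 4× images. Treatment had been applied by pin tool the day after seeding as one drug alone or as a fixed anchor-drug dose with five library-drug doses (not always all listed) in √10 steps. Relative viability is the nuclei count of treated wells divided by that of vehicle wells, and values are medians of duplicate plates.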
# [1] = compound: C[C@@H](N)c1ccc(C(=O)Nc2ccnc3[nH]ccc23)cc1 + CC(=O)Nc1cccc(-n2c(=O)n(C3CC3)c(=O)c3c(Nc4ccc(I)cc4F)n(C)c(=O)c(C)c32)c1 [Trametinib] (partner 0.02 µM)
# In short: as §1
# [2] = compound: C1CNCCC1C2=CC(=NN2)C3=CC=NC=C3 + CC(=O)Nc1cccc(-n2c(=O)n(C3CC3)c(=O)c3c(Nc4ccc(I)cc4F)n(C)c(=O)c(C)c32)c1 [Trametinib] (partner 0.02 µM)
# In short: as §1
# Tanzisertib + Olaparib = compound: O[C@H]1CC[C@H](Nc2ncc3nc(Nc4c(F)cc(F)cc4F)n([C@H]4CCOC4)c3n2)CC1 [Tanzisertib] + O=C(c1cc(Cc2n[nH]c(=O)c3ccccc23)ccc1F)N1CCN(C(=O)C2CC2)CC1 [Olaparib] (partner 8 µM)
# In short: as §1
Cell Line,relative viability (Tanzisertib + AZD7762; first compound 0.08 µM),relative viability (Tanzisertib + AZD7762; first compound 0.253 µM),relative viability (Tanzisertib + AZD7762; first compound 0.8 µM),relative viability (Tanzisertib + AZD7762; first compound 2.53 µM),relative viability (Tanzisertib + AZD7762; first compound 8 µM),relative viability ([1]; first compound 0.04 µM),relative viability ([1]; first compound 0.1265 µM),relative viability ([1]; first compound 0.4 µM),relative viability ([1]; first compound 1.265 µM),relative viability ([1]; first compound 4 µM),relative viability ([2]; first compound 0.08 µM),relative viability ([2]; first compound 0.8 µM),relative viability ([2]; first compound 2.53 µM),relative viability ([2]; first compound 8 µM),relative viability (Tanzisertib + Olaparib; first compound 0.08 µM),relative viability (Tanzisertib + Olaparib; first compound 0.253 µM),relative viability (Tanzisertib + Olaparib; first compound 0.8 µM),relative viability (Tanzisertib + Olaparib; first compound 2.53 µM),relative viability (Tanzisertib + Olaparib; first compound 8 µM)
NCI-H2087,1.48,1.07,1.33,1.41,1.26,0.284,0.214,0.202,0.229,0.251,0.216,0.226,0.181,0.291,0.552,0.576,0.501,0.52,0.588
NCI-H2126,1.07,1.03,1.04,1.05,1.05,0.515,0.561,0.534,0.637,0.676,0.582,0.564,0.543,0.564,0.913,0.919,0.987,0.873,0.938
NCI-H2170,1.09,0.897,0.791,1.02,0.676,0.959,0.944,0.926,0.999,0.939,0.763,0.925,0.915,0.907,0.669,0.569,0.601,0.604,0.53
NCI-H2342,0.416,0.633,0.515,0.477,0.41,0.91,0.821,0.837,0.746,0.737,0.716,0.798,0.794,1.04,0.572,0.423,0.483,0.485,0.439
NCI-H2347,0.866,0.718,0.825,0.762,0.662,0.283,0.337,0.366,0.304,0.175,0.264,0.266,0.326,0.262,0.628,0.626,0.593,0.677,0.766
NCI-H2405,0.767,0.794,0.757,0.795,0.617,,0.64,0.418,0.377,0.299,0.588,0.631,0.638,0.615,0.924,0.902,0.869,1.03,0.869
NCI-H3122,1.13,1.03,1.03,0.981,0.993,0.231,0.229,0.223,0.26,0.234,0.207,0.222,0.209,0.238,0.708,0.587,0.634,0.583,0.62
PC-3 [JPC-3],0.81,0.937,0.844,0.733,0.679,0.656,0.695,0.732,0.651,0.549,0.637,0.718,0.734,0.684,1.18,1.21,1.19,1.18,1.04
